Results published in PubChem BioAssay AID2060326 (Molecular Pharmacology Branch, DTP, NCI, 2025).
“And” between values parts separate entries of the source, which are not always exact repeats. Equal entries are not always repeated.

System: MDA-MB-468 multi-cell spheroids, viability
Experiment: Anticancer human tumor MDA-MB-468 cell line growth inhibition [IpAb];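 further: spheroids exposed to agents for seven days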;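 on viability, T/C: 100% = DMSO vehicle control viability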
Conditions: for viability, T/C: stronger effect = lower value
In short: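 Combinations with ipatasertib or abemaciclib were tested on tumour spheroids holding HUVEC (25%) and MSC (15%) alongside 60% malignant cells. Top concentration was at or near clinical Cmax (10 microM if undefined), descending in half-log steps.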

[1] = curve of first compound, second compound 0.1 µM
[2] = curve of first compound, second compound 0.316 µM
[3] = curve of first compound, second compound 1 µM
[4] = second compound 0.1 µM, first compound 0.00949 µM
[5] = second compound 0.1 µM, first compound 0.03 µM
[6] = second compound 0.1 µM, first compound 0.0949 µM
[7] = second compound 0.1 µM, first compound 0.3 µM
[8] = second compound 0.1 µM, first compound 0.949 µM
[9] = second compound 0.1 µM, first compound 3 µM
[10] = second compound 0.316 µM, first compound 0.00949 µM
[11] = second compound 0.316 µM, first compound 0.03 µM
[12] = second compound 0.316 µM, first compound 0.0949 µM
[13] = second compound 0.316 µM, first compound 0.3 µM
[14] = second compound 0.316 µM, first compound 0.949 µM
[15] = second compound 0.316 µM, first compound 3 µM
[16] = second compound 1 µM, first compound 0.00949 µM
[17] = second compound 1 µM, first compound 0.03 µM
[18] = second compound 1 µM, first compound 0.0949 µM
[19] = second compound 1 µM, first compound 0.3 µM
[20] = second compound 1 µM, first compound 0.949 µM
[21] = second compound 1 µM, first compound 3 µM

Row | SMILES | IC50 [1] [µM] | IC50 [2] [µM] | IC50 [3] [µM] | viability, T/C [4] [%] | viability, T/C [5] [%] | viability, T/C [6] [%] | viability, T/C [7] [%] | viability, T/C [8] [%] | viability, T/C [9] [%] | viability, T/C [10] [%] | viability, T/C [11] [%] | viability, T/C [12] [%] | viability, T/C [13] [%] | viability, T/C [14] [%] | viability, T/C [15] [%] | viability, T/C [16] [%] | viability, T/C [17] [%] | viability, T/C [18] [%] | viability, T/C [19] [%] | viability, T/C [20] [%] | further results
1 | CC(C)(C)c1cnc(CSc2cnc(NC(=O)C3CCNCC3)s2)o1 + CCN1CCN(Cc2ccc(Nc3ncc(F)c(-c4cc(F)c5nc(C)n(C(C)C)c5c4)n3)nc2)CC1 | 0.115 | 0.0623 | 0.0426 | 93.6 | 91.7 | 59.9 | 0.22 | 0.22 | 0.29 | 90.8 | 89.8 | 27.1 | 0.32 | 0.26 | 0.31 | 85.6 | 70.8 | 2.25 | 0.45 | 0.35 | IC50 (curve of first compound, second compound 0.01 µM): 0.105 µM; IC50 (curve of first compound, second compound 0.0316 µM): 0.0794 µM; viability, T/C (second compound 0.01 µM, first compound 0.00949 µM): 110%; viability, T/C (second compound 0.01 µM, first compound 0.03 µM): 102%; viability, T/C (second compound 0.01 µM, first compound 0.0949 µM): 55.2%; viability, T/C (second compound 0.01 µM, first compound 0.3 µM): 0.29%; viability, T/C (second compound 0.01 µM, first compound 0.949 µM): 0.19%; viability, T/C (second compound 0.01 µM, first compound 3 µM): 0.31%; viability, T/C (second compound 0.0316 µM, first compound 0.00949 µM): 94.8%; viability, T/C (second compound 0.0316 µM, first compound 0.03 µM): 92%; viability, T/C (second compound 0.0316 µM, first compound 0.0949 µM): 42.3%; viability, T/C (second compound 0.0316 µM, first compound 0.3 µM): 0.24%; viability, T/C (second compound 0.0316 µM, first compound 0.949 µM): 0.19%; viability, T/C (second compound 0.0316 µM, first compound 3 µM): 0.32%; viability, T/C [21]: 0.37%
2 | CC(C)(C)c1cnc(CSc2cnc(NC(=O)C3CCNCC3)s2)o1 | – | – | – | – | – | – | – | – | – | – | – | – | – | – | – | – | – | – | – | – | viability, T/C (compound 0.00949 µM): 90.5% and 95.1%; viability, T/C (compound 0.03 µM): 98.2% and 96.8%; viability, T/C (compound 0.0949 µM): 44.3% and 64.7%; viability, T/C (compound 0.3 µM): 0.55% and 0.39%; viability, T/C (compound 0.949 µM): 0.44% and 0.29%; viability, T/C (compound 3 µM): 0.51% and 0.39%; IC50 (curve of compound): 0.0832 µM and 0.123 µM
3 | CC(C)(C)c1cnc(CSc2cnc(NC(=O)C3CCNCC3)s2)o1 + CC(C)NCC(C(=O)N1CCN(c2ncnc3c2C(C)CC3O)CC1)c1ccc(Cl)cc1 | 0.0691 | 0.0453 | 0.0369 | 110 | 91.4 | 35 | 0.3 | 0.19 | 0.32 | 73.9 | 67.4 | 18.8 | 0.27 | 0.15 | 0.27 | 62.2 | 58.7 | 10 | 0.2 | 0.14 | IC50 (curve of first compound, second compound 3.16 µM): < 0.00949 µM; IC50 (curve of first compound, second compound 10 µM): < 0.00949 µM; viability, T/C [21]: 0.24%; viability, T/C (second compound 3.16 µM, first compound 0.00949 µM): 41.5%; viability, T/C (second compound 3.16 µM, first compound 0.03 µM): 35.4%; viability, T/C (second compound 3.16 µM, first compound 0.0949 µM): 11.5%; viability, T/C (second compound 3.16 µM, first compound 0.3 µM): 0.23%; viability, T/C (second compound 3.16 µM, first compound 0.949 µM): 0.13%; viability, T/C (second compound 3.16 µM, first compound 3 µM): 0.31%; viability, T/C (second compound 10 µM, first compound 0.00949 µM): 21.3%; viability, T/C (second compound 10 µM, first compound 0.03 µM): 18.1%; viability, T/C (second compound 10 µM, first compound 0.0949 µM): 1.19%; viability, T/C (second compound 10 µM, first compound 0.3 µM): 0.32%; viability, T/C (second compound 10 µM, first compound 0.949 µM): 0.24%; viability, T/C (second compound 10 µM, first compound 3 µM): 0.65%
